Results published in article PMC6007354 (2016).

Key:
[1] = system: tRNA (GCGCGCGCGC) (RNA, other) GCGCGCGCGC; assay: 1H NMR titration; conditions: 0.01 M HEPES pH 7.4 in D2O; shifts of probe and base protons
[2] = system: tRNA (AUAUAUAUAU) (RNA, other) AUAUAUAUAU; assay: 1H NMR titration; conditions: 0.01 M HEPES pH 7.4 in D2O; shifts of probe and base protons
[3] = system: tRNA (GCGCGCGCGC) (RNA, other) GCGCGCGCGC; assay: fluorescence turn-on (443 nm); conditions: 10 mM HEPES pH 7.4; probe 10 uM; quantum yield 0.22; no constant
[4] = system: tRNA (AUAUAUAUAU) (RNA, other) AUAUAUAUAU; assay: fluorescence turn-on (443 nm); conditions: 10 mM HEPES pH 7.4; probe 10 uM; quantum yield 0.21; no constant

binding [1]: yes
binding [2]: yes
binding [3]: yes
binding [4]: yes
Structure (SMILES): C[n+]1ccn(Cc2ccc3ccccc3c2)c1
